Measurements published in US12570648B2, “6,7-dihydro-5H-pyrido[2,3-c]pyridazine derivatives and related compounds as Bcl-xL protein inhibitors and pro-apoptotic agents for treating cancer” (LES LABORATOIRES SERVIER, priority 2019, dated 2026).

Tests used:
[1] = target: GST(1-218)-(FACTOR_XA)-hsBCLXL(2-209) (Homo sapiens (Human), UniProt Q07817); assay: Fluorescence polarisation assay; assay type: binding
Description: Fluorescence polarization measures the rotation of a fluorescing species in solution, the larger the molecule the more polarized the fluorescence emission.
(GST UniProtKB® primary accession number P08515 and BCLXL UniProtKB® primary accession number Q07817-1), • resulting in an increase in anisotropy. If a compound is added which competitively binds to the same site as the probe, thereby releasing it, anisotropy decreases due to the increased amount of free probe.
An 11-point serial dilution of each compound was prepared in DMSO, the final buffer conditions were 10 mM 4-(2-hydroxyethyl)-1-piperazineethanesulfonic acid [HEPES], 150 mM NaCl, 0.05% Tween 20, pH 7.4 and 5% DMSO. The final protein concentration in the assay was 20 nM with the fluorescent probe present at 10 nM. […] 1; 37 (WebServer issue): W441-W445.

H146 cells = assay: H146 cell viability using MTT assay; assay type: cell-based; conditions: Homo sapiens, NCI-H146, 48 h exposure
Description: MTT colorimetric assay is based on the mitochondrial reduction of tetrazolium salt by living cells. The viable cell number is proportional to the production of formazan salts, which can be read spectrophotometrically at 540 nm.
MOLT-4 and H146 cells were purchased from ATCC and cultivated in RPMI 1640 supplemented with 10% heat inactivated fetal bovine serum, penicillin (100 IU/ml), streptomycin (100 μg/ml) and L-glutamine (2 mM). Cells were cultured at 37° C. in a humidified atmosphere containing 5% CO2. Cells were seeded in 96 microwell plates (150p per well) and exposed to the compounds for 48 h (3.16 fold serially diluted; 9 concentrations each, triplicates). At the end of incubation time, 15 μL of MTT solution (5 mg/ml) were added per well and the cells were incubated for another 4 h. Then, 100 μL of 10% Sodium Dodecyl Sulfate (SDS)/HCl 10 mM were added per well and the plate was incubated overnight, before measurement of optical density at 540 nm. IC50s were calculated using standard four-parametric curve fitting.

MOLT-4 cells = assay: MOLT-4 cell viability using MTT assay; assay type: cell-based; conditions: Homo sapiens, MOLT-4, 48 h, 48 h exposure
Description: MTT colorimetric assay is based on the mitochondrial reduction of tetrazolium salt by living cells.
Cells were cultured at 37° C. in a humidified atmosphere containing 5% CO2. […] At the end of incubation time, 15 μL of MTT solution (5 mg/ml) were added per well and the cells were incubated for another 4 h. […] IC50s were calculated using standard four-parametric curve fitting.

[2] = target: His-His-(EK)-hsBCLXL(2-197)[N197C] (Homo sapiens (Human), UniProt Q07817, N197C); assay: Fluorescence quenching assay; assay type: binding; conditions: 1 nM Cy5-labelled protein, 400 nM PUMA peptide, 2 hours at 23° C.; KI determined from IC50
Chain of His-His-(EK)-hsBCLXL(2-197)[N197C] (Q07817 2-197 N197C): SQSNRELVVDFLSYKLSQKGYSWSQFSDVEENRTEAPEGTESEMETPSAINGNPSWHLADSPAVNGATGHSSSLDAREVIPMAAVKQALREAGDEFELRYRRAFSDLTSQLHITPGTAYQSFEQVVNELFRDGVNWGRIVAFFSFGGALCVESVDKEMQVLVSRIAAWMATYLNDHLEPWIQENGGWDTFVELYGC
Method in brief: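 Cy5-labelled BCL-xL (1 nM) with TQ5WS quencher-labelled PUMA peptide (400 nM); displacement by compound (11-point dilution) raises fluorescence. Buffer 10 mM HEPES, 150 mM NaCl, 0.05% Tween 20, pH 7.4, 5% DMSO; 2 h at 23° C, Ex 620/Em 680 nm. Ki derived from IC50.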

Chain of GST(1-218)-(FACTOR_XA)-hsBCLXL(2-209) (Q07817 other isoform, or with tags, fused parts or gaps): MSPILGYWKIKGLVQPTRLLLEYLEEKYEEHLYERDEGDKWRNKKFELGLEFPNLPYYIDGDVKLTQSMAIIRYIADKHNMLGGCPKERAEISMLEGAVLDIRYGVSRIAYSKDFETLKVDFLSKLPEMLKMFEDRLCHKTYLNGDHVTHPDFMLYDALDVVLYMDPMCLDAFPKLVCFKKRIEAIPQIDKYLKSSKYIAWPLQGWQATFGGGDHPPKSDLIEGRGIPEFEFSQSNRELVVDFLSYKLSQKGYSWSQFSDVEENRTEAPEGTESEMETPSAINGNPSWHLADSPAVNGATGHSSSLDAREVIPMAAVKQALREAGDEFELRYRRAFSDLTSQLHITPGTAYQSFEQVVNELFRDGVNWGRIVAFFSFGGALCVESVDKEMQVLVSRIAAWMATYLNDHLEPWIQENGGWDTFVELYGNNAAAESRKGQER

SMILES | Ki [1] | IC50 (H146 cells) | IC50 (MOLT-4 cells) | Ki [2]
O=C(O)c1csc(N2CCCc3cc(Nc4nc5ccccc5s4)ccc32)n1 [Example 1, 2-{6-[(1,3-Benzothiazol-2-yl)amino]-1,2,3,4-tetrahydroquinolin-1-yl}-1,3-thiazole-4-carboxylic acid] | 37000 nM |  |  | 
O=C(O)c1csc(-n2ccc3cc(Nc4nc5ccccc5s4)ccc32)n1 [Example 2, 2-{5-[(1,3-Benzothiazol-2-yl)amino]-1H-indol-1-yl}-1,3-thiazole-4-carboxylic acid] | > 10000 nM |  |  | 
O=C(O)c1csc(N2CCc3cc(Nc4nc5ccccc5s4)ccc32)n1 [Example 3, 2-{5-[(1,3-Benzothiazol-2-yl)amino]-2,3-dihydro-1H-indol-1-yl}-1,3-thiazole-4-carboxylic acid] | 36000 nM |  |  | 
O=C(O)c1csc(N2CCOc3cc(Nc4nc5ccccc5s4)ccc32)n1 [Example 4, 2-{7-[(1,3-Benzothiazol-2-yl)amino]-3,4-dihydro-2H-1,4-benzoxazin-4-yl}-1,3-thiazole-4-carboxylic acid] | > 10000 nM |  |  | 
O=C(O)c1cccc(-n2ccc3cc(Nc4nc5ccccc5s4)ccc32)n1 [Example 5, 6-{5-[(1,3-Benzothiazol-2-yl)amino]-1H-indol-1-yl}pyridine-2-carboxylic acid] | > 10000 nM |  |  | 
O=C(O)c1csc(-n2ccc3cc(Nc4nc5ccccc5s4)cnc32)n1 [Example 6, 2-{5-[(1,3-Benzothiazol-2-yl)amino]-1H-pyrrolo[2,3-b]pyridin-1-yl}-1,3-thiazole-4-carboxylic acid] | > 10000 nM |  |  | 
O=C(O)c1csc(-n2ccc3cc(Nc4nc5ccccc5s4)ncc32)n1 [Example 7, 2-{5-[(1,3-Benzothiazol-2-yl)amino]-1H-pyrrolo[2,3-c]pyridin-1-yl}-1,3-thiazole-4-carboxylic acid] | 9900 nM |  |  | 
O=C(O)c1csc(-n2ccc3cc(Nc4nc5ccccc5s4)nnc32)n1 [Example 8, 2-{3-[(1,3-Benzothiazol-2-yl)amino]-7H-pyrrolo[2,3-c]pyridazin-7-yl}-1,3-thiazole-4-carboxylic acid] | 1100 nM |  |  | 
O=C(O)c1nc(-n2ccc3cc(Nc4nc5ccccc5s4)nnc32)sc1CCCOc1ccccc1F [Example 9, 2-{3-[(1,3-Benzothiazol-2-yl)amino]-7H-pyrrolo[2,3-c]pyridazin-7-yl}-5-[3-(2-fluorophenoxy)propyl]-1,3-thiazole-4-carboxylic acid] | 13 nM | 2340 nM |  | 
O=C(O)c1csc(N2CCc3cc(Nc4nc5ccccc5s4)nnc32)n1 [Example 10, 2-{3-[(1,3-Benzothiazol-2-yl)amino]-5H,6H,7H-pyrrolo[2,3-c]pyridazin-7-yl}-1,3-thiazole-4-carboxylic acid] | 210 nM | > 15000 nM | > 15000 nM | 
O=C(O)c1csc(N2CCCc3cc(Nc4nc5ccccc5s4)nnc32)n1 [Example 12, 2-{3-[(1,3-Benzothiazol-2-yl)amino]-5H,6H,7H,8H-pyrido[2,3-c]pyridazin-8-yl}-1,3-thiazole-4-carboxylic acid] | 30 nM |  |  | 
Cc1c(Nc2nc3ccccc3s2)nnc2c1CCN2c1nc(C(=O)O)c(-c2cnn(CC34CC5CC(CC(C5)C3)C4)c2C)s1 [Example 13, 5-{1-[(Adamantan-1-yl)methyl]-5-methyl-1H-pyrazol-4-yl}-2-{3-[(1,3-benzothiazol-2-yl)amino]-4-methyl-5H,6H,7H-pyrrolo[2,3-c]pyridazin-7-yl}-1,3-thiazole-4-carboxylic acid] | 9.2 nM | 790 nM | 126 nM | 
COCCCC1(Cn2ncc(-c3sc(N4CCc5c4nnc(Nc4nc6ccccc6s4)c5C)nc3C(=O)O)c2C)CCCCCCC1 [Example 14, 2-{3-[(1,3-Benzothiazol-2-yl)amino]-4-methyl-5H,6H,7H-pyrrolo[2,3-c]pyridazin-7-yl}-5-(1-{[1-(3-methoxypropyl)cyclooctyl]methyl}-5-methyl-1H-pyrazol-4-yl)-1,3-thiazole-4-carboxylic acid] | 5.5 nM | 3080 nM | 453 nM | 
Cc1c(Nc2nc3ccccc3s2)nnc2c1CCCN2c1nc(C(=O)O)cs1 [Example 15, 2-{3-[(1,3-Benzothiazol-2-yl)amino]-4-methyl-5H,6H,7H,8H-pyrido[2,3-c]pyridazin-8-yl}-1,3-thiazole-4-carboxylic acid] | 2.3 nM | 2600 nM | 1050 nM | 
CC1Cc2cc(Nc3nc4ccccc4s3)nnc2N1c1nc(C(=O)O)cs1 (stereo not drawn) [Example 16, 2-{3-[(1,3-Benzothiazol-2-yl)amino]-6-methyl-5H,6H,7H-pyrrolo[2,3-c]pyridazin-7-yl}-1,3-thiazole-4-carboxylic acid] | 120 nM |  |  | 
Cc1c(Nc2nccs2)nnc2c1CCN2c1nc(C(=O)O)cs1 [Example 18, 2-{4-Methyl-3-[(1,3-thiazol-2-yl)amino]-5H,6H,7H-pyrrolo[2,3-c]pyridazin-7-yl}-1,3-thiazole-4-carboxylic acid] | 5000 nM |  |  | 
Cc1nc(Nc2nnc3c(c2C)CCN3c2nc(C(=O)O)cs2)sc1C [Example 19, 2-{3-[(4,5-Dimethyl-1,3-thiazol-2-yl)amino]-4-methyl-5H,6H,7H-pyrrolo[2,3-c]pyridazin-7-yl}-1,3-thiazole-4-carboxylic acid] | 3300 nM |  |  | 
Cc1c(Nc2nc3ccccc3s2)nnc2c1CCCCN2c1nc(C(=O)O)cs1 [Example 25, 2-{3-[(1,3-Benzothiazol-2-yl)amino]-4-methyl-5H,6H,7H,8H,9H-pyridazino[3,4-b]azepin-9-yl}-1,3-thiazole-4-carboxylic acid] | 120 nM |  |  | 
Cc1c(Nc2nc3ccccc3s2)nnc2c1CCCCN2c1ccc(-c2cnn(CC34CC5CC(CC(C5)C3)C4)c2C)c(C(=O)O)n1 [Example 29, 3-{1-[(Adamantan-1-yl)methyl]-5-methyl-1H-pyrazol-4-yl}-6-{3-[(1,3-benzothiazol-2-yl)amino]-4-methyl-5H,6H,7H,8H,9H-pyridazino[3,4-b]azepin-9-yl}pyridine-2-carboxylic acid] | 9.6 nM |  |  | 
CNCC#Cc1ccc(OCCCc2sc(N3CCCc4c3nnc(Nc3nc5ccccc5s3)c4C)nc2C(=O)O)c(F)c1 [Example 32, 2-{3-[(1,3-Benzothiazol-2-yl)amino]-4-methyl-5H,6H,7H,8H-pyrido[2,3-c]pyridazin-8-yl}-5-(3-{2-fluoro-4-[3-(methylamino)prop-1-yn-1-yl]phenoxy}propyl)-1,3-thiazole-4-carboxylic acid] | < 1 nM |  | 0.987 nM | 0.0046 nM
Cc1c(Nc2nc3ccccc3s2)nnc2c1C[C@@H](O)CN2c1nc(C(=O)O)cs1 [Example 33, 2-[(6R)-3-[(1,3-Benzothiazol-2-yl)amino]-6-hydroxy-4-methyl-5H,6H,7H,8H-pyrido[2,3-c]pyridazin-8-yl]-1,3-thiazole-4-carboxylic acid] | 5.5 nM |  |  | 1.4 nM
Cc1c(Nc2nc3ccccc3s2)nnc2c1CCCN2c1nc(C(=O)O)c(CCCOc2ccc(CCCN3CCC4(CC3)CNC(=O)C4)cc2F)s1 [Example 73, 2-[3-(1,3-Benzothiazol-2-ylamino)-4-methyl-6,7-dihydro-5H-pyrido[2,3-c]pyridazin-8-yl]-5-[3-[2-fluoro-4-[3-(3-oxo-2,8-diazaspiro[4.5]decan-8-yl)propyl]phenoxy]propyl]thiazole-4-carboxylic acid] |  | 14.7 nM | 6.54 nM | 0.0025 nM
